What was measured:
Assay type in all cases: cell-based
PLK1 = molecular target: T1, PLK1 (Homo sapiens, UniProt P53350); assay: Luciferase assay for PLK1 in HeLa LgBit (Plk1-HiBit KI) cell line; details: 300 nM compound, luminescence after 9 hours, read-out: Activity: ratio of the luminescense value of compound treatment group to DMSO treatment group
T1 construct: endogenous in cells; host or cells: HeLa LgBit (Plk1-HiBit KI): HeLa cells stably expressing LgBit, with HiBit knocked into the endogenous Plk1 locus by CRISPR/Cas9
T1 sequence (P53350 whole entry): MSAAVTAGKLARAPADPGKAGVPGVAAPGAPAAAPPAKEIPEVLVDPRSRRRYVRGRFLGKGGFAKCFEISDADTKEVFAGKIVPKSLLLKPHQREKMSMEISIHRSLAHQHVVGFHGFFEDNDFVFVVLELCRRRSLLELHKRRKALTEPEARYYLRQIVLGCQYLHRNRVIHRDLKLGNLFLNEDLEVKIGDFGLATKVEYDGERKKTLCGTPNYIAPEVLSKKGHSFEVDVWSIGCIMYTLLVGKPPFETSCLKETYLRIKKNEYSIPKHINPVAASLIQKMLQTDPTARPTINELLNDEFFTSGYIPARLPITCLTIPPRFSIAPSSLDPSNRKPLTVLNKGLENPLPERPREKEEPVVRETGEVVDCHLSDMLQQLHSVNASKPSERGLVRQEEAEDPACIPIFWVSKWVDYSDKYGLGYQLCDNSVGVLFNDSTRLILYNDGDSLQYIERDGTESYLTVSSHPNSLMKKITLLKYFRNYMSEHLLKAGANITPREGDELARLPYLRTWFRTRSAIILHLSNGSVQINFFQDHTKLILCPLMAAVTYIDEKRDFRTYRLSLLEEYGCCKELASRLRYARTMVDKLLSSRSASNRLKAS
Procedure, shortened: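 Luminescence, followed in real time after adding compound at 300 nM and Endurazine substrate, is reported relative to DMSO-treated wells. Cells are a HeLa LgBit line with a Plk1-HiBit knock-in, synchronized by 2 mM thymidine for 24 h, released, and cultured 18 h before treatment.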

MRC-5 cell line = assay: Cell viability assay (cytotoxicity) for MRC-5 cell line; details: Homo sapiens, MRC5, 120 h; MRC-5 normal cell line, 5 days, EZ-Cytox, 10000 nM to 1.52 nM; read-out: Activity: IC50 value to MRC-5 cell line (Exemplary Compounds)
Procedure: 4. Cell Viability Assay for MRC-5 Cell Line
(1) Culture of MRC-5 Cell Line
Passage of cultured cells was maintained within P15.
(2) Treatment of Compounds of the Present Invention
Then, it was cultured in 37° C.
(3) Cytotoxicity Experiment
CO2 incubator for 4 hours.
Cell Viability Assay for MRC-5 cell line

NCI-H526 cell line = assay: Cell viability assay for H526 cell line; details: Homo sapiens, NCI-H526, 120 h; H526 cells, 5 days, EZ-Cytox, 3000 nM to 0.46 nM
Procedure, shortened: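 NCI-H526 cells exposed to compounds for 5 days in a CO2 incubator; viability read as absorbance at 450 nm after 3 min plate shaking; IC50 derived from treatment response.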

| Structure (SMILES) | remaining activity at 0.3 µM (PLK1) [%] | IC50 (MRC-5 cell line) [µM] | IC50 (NCI-H526 cell line) [µM] |
| --- | --- | --- | --- |
| COc1cc(C(=O)NC2CC3(CCN(CC4CCN(c5ccc(C6CCC(=O)NC6=O)cc5C)CC4)CC3)C2)ccc1Nc1ncc2c(n1)N(C1CCCC1)CC(F)(F)C(=O)N2C (stereo not drawn) [Compound 25, 4-((9-cyclopentyl-7,7-difluoro-5-methyl-6-oxo-6,7,8,9-tetrahydro-5H-pyrimido[4,5-b][1,4]diazepin-2-yl)amino)-N-(7-((1-(4-(2,6-dioxopiperidin-3-yl)-2-methylphenyl)piperidin-4-yl)methyl)-7-azaspiro[3.5]nonan-2-yl)-3-methoxybenzamide] | < 30 | > 10 | < 0.03 |
| COc1cc(C(=O)NC2CC3(CCN(CC4(C)CCN(c5ccc(C6CCC(=O)NC6=O)cc5F)CC4)CC3)C2)ccc1Nc1ncc2c(n1)N(C1CCCC1)CC(F)(F)C(=O)N2C (stereo not drawn) [Compound 26, 4-((9-cyclopentyl-7,7-difluoro-5-methyl-6-oxo-6,7,8,9-tetrahydro-5H-pyrimido[4,5-b][1,4]diazepin-2-yl)amino)-N-(7-((1-(4-(2,6-dioxopiperidin-3-yl)-2-fluorophenyl)-4-methylpiperidin-4-yl)methyl)-7-azaspiro[3.5]nonan-2-yl)-3-methoxybenzamide] | < 60 | 5.59 | < 0.05 |
| COc1cc(C(=O)NC2CC3(CCN(CC4CCN(c5ccc(C6CCC(=O)NC6=O)cc5F)CC4C)CC3)C2)ccc1Nc1ncc2c(n1)N(C1CCCC1)CC(F)(F)C(=O)N2C (stereo not drawn) [Compound 27, 4-((9-cyclopentyl-7,7-difluoro-5-methyl-6-oxo-6,7,8,9-tetrahydro-5H-pyrimido[4,5-b][1,4]diazepin-2-yl)amino)-N-(7-((1-(4-(2,6-dioxopiperidin-3-yl)-2-fluorophenyl)-3-methylpiperidin-4-yl)methyl)-7-azaspiro[3.5]nonan-2-yl)-3-methoxybenzamide] | < 60 | > 10 | < 0.03 |
| COc1cc(C(=O)NC2CCN(C(=O)CCN3CCN(c4ccc(N5CCC(=O)NC5=O)cc4)CC3)CC2)ccc1Nc1ncc2c(n1)N(C1CCCC1)CC(F)(F)C(=O)N2C [Compound 32, 4-((9-cyclopentyl-7,7-difluoro-5-methyl-6-oxo-6,7,8,9-tetrahydro-5H-pyrimido[4,5-b][1,4]diazepin-2-yl)amino)-N-(1-(3-(4-(4-(2,4-dioxotetrahydropyrimidin-1(2H)-yl)phenyl)piperazin-1-yl)propanoyl)piperidin-4-yl)-3-methoxybenzamide] | < 60 | > 10 | < 0.03 |
| COc1cc(C(=O)NC2CC3(CCN(CC4CCN(c5ccc(N6CCC(=O)NC6=O)cc5)CC4)CC3)C2)ccc1Nc1ncc2c(n1)N(C1CCCC1)CC(F)(F)C(=O)N2C [Compound 33, 4-((9-cyclopentyl-7,7-difluoro-5-methyl-6-oxo-6,7,8,9-tetrahydro-5H-pyrimido[4,5-b][1,4]diazepin-2-yl)amino)-N-(7-((1-(4-(2,4-dioxotetrahydropyrimidin-1(2H)-yl)phenyl)piperidin-4-yl)methyl)-7-azaspiro[3.5]nonan-2-yl)-3-methoxybenzamide] | < 70 | > 10 | < 0.03 |
| COc1cc(C(=O)NC2CCN(C(=O)CCCOc3cccc(C4CCC(=O)NC4=O)n3)CC2)ccc1Nc1ncc2c(n1)N(C1CCCC1)CC(F)(F)C(=O)N2C (stereo not drawn) [Compound 35, 4-((9-cyclopentyl-7,7-difluoro-5-methyl-6-oxo-6,7,8,9-tetrahydro-5H-pyrimido[4,5-b][1,4]diazepin-2-yl)amino)-N-(1-(4-((6-(2,6-dioxopiperidin-3-yl)pyridin-2-yl)oxy)butanoyl)piperidin-4-yl)-3-methoxybenzamide] | < 60 | > 10 | < 0.05 |
| COc1cc(C(=O)NC2CCN(C(=O)CCN3CCN(c4cccc(C5CCC(=O)NC5=O)n4)CC3)CC2)ccc1Nc1ncc2c(n1)N(C1CCCC1)CC(F)(F)C(=O)N2C (stereo not drawn) [Compound 36, 4-((9-cyclopentyl-7,7-difluoro-5-methyl-6-oxo-6,7,8,9-tetrahydro-5H-pyrimido[4,5-b][1,4]diazepin-2-yl)amino)-N-(1-(3-(4-(6-(2,6-dioxopiperidin-3-yl)pyridin-2-yl)piperazin-1-yl)propanoyl)piperidin-4-yl)-3-methoxybenzamide] | < 60 | > 10 | < 0.03 |
| COc1cc(C(=O)NC2CCN(C(=O)CCN3CCN(c4ccnc(C5CCC(=O)NC5=O)c4)CC3)CC2)ccc1Nc1ncc2c(n1)N(C1CCCC1)CC(F)(F)C(=O)N2C (stereo not drawn) [Compound 37, 4-((9-cyclopentyl-7,7-difluoro-5-methyl-6-oxo-6,7,8,9-tetrahydro-5H-pyrimido[4,5-b][1,4]diazepin-2-yl)amino)-N-(1-(3-(4-(2-(2,6-dioxopiperidin-3-yl)pyridin-4-yl)piperazin-1-yl)propanoyl)piperidin-4-yl)-3-methoxybenzamide] | < 60 | > 10 | < 0.05 |
| COc1cc(C(=O)NC2CC3(CCN(CC4CCN(c5ccc(C6CCC(=O)NC6=O)nc5)CC4)CC3)C2)ccc1Nc1ncc2c(n1)N(C1CCCC1)CC(F)(F)C(=O)N2C (stereo not drawn) [Compound 39, 4-((9-cyclopentyl-7,7-difluoro-5-methyl-6-oxo-6,7,8,9-tetrahydro-5H-pyrimido[4,5-b][1,4]diazepin-2-yl)amino)-N-(7-((1-(6-(2,6-dioxopiperidin-3-yl)pyridin-3-yl)piperidin-4-yl)methyl)-7-azaspiro[3.5]nonan-2-yl)-3-methoxybenzamide] | < 60 | > 10 | < 0.03 |
| COc1cc(C(=O)NC2CC3(CCN(CCC4CCN(c5ccc(C6CCC(=O)NC6=O)cc5F)CC4)CC3)C2)ccc1Nc1ncc2c(n1)N(C1CCCC1)CC(F)(F)C(=O)N2C (stereo not drawn) [Compound 45, 4-((9-cyclopentyl-7,7-difluoro-5-methyl-6-oxo-6,7,8,9-tetrahydro-5H-pyrimido[4,5-b][1,4]diazepin-2-yl)amino)-N-(7-(2-(1-(4-(2,6-dioxopiperidin-3-yl)-2-fluorophenyl)piperidin-4-yl)ethyl)-7-azaspiro[3.5]nonan-2-yl)-3-methoxybenzamide] | < 60 | 8.68 | < 0.03 |

Reference: US11912710B2 (UPPTHERA, INC., priority 2021, dated 2024)
